Literature values, collected in patent publication US20120283175A1, “ANTIBACTERIAL COMPOSITIONS” (Achaogen, Inc., priority 2009, published 2012).

System: E. coli strain ATCC 25922
Settings: reported in US 2004-229955A1; cited from earlier work

For `Cc1cccc(CNCC(=O)Nc2ccc(C#CC#Cc3ccc(C(=O)N[C@@H](CN)C(=O)NO)cc3)cc2)c1` [N-[(1S)-1-(aminomethyl)-2-(hydroxyamino)-2-oxoethyl]-4-(4-{4-[({[(3methylphenyl)methyl]amino}acetyl)amino]phenyl}buta-1,3-diynyl)benzamide], the synergy with erythromycin is listed as “strong synergy”.
